Test results taken from US20210207064A1, “COMPOUND FOR RESTORING CONTAMINATED SOIL OR CONTAMINATED WATER” (FNG RESEARCH CO., LTD., priority 2018, published 2021).

Columns and labels:
[1] = Heavy metal removal ability test in contaminated soil around a factory (WAK-Me test kit); conditions: 1.0 wt % aqueous solution, colour comparison test kit
Protocol: The contaminated soil around the factory in the industrial complex was collected, pulverized, and meshed to prepare fine particles of soil samples.
Each 3 ml of aqueous solutions for restoring soil was added to soil samples and mixed for 5 minutes.

[2] = Heavy metal removal ability test in contaminated soil (ICP-MS), arsenic; conditions: for Arsenic (As) Adsorption amount: contaminated soil; for Arsenic (As) Adsorption rate: relative to EDTA control
How it was run: (§1)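 Sieved soil spiked with aqueous heavy metal, mixed 5 min with 3 ml of test solution, then extracted with 50 ml distilled water (20 min stirring, 1 h settling). Supernatant metal measured by ICP-MS; adsorption rate (%) expressed relative to control.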

[3] = Formaldehyde (formalin) removing ability test (GC); conditions: 2.0% formaldehyde solution, 3 molar equivalents of compound, room temperature; for Formaldehyde GC Area, 30 min: after 30 min; for Formaldehyde GC Area, 180 min: after 180 min; for Formaldehyde GC Area, Initial: initial state
[4] = Heavy metal removal ability test in contaminated soil (ICP-MS), nickel; conditions: for Nickel (Ni) Adsorption amount: contaminated soil; for Nickel (Ni) Adsorption rate: relative to EDTA control
How it was run: as §1

[5] = test system: human skin; test: Skin irritation test of active ingredient (patch method, CTFA guidelines); format: in vivo; conditions: 24 h patch; for Test result (number of subject) (+) / Test result (number of subject) (++) / Test result (number of subject) (±) / Test result (number of subject) (−): 20 people; for Test result (number of subject) (+): (+) apparent reddening; for Test result (number of subject) (++): (++) more reddened and swollen; for Test result (number of subject) (±): (±) slightly reddish; for Test result (number of subject) (−): (−) no erythema
[6] = Heavy metal removal ability test in contaminated soil (ICP-MS), cadmium; conditions: for Cadmium (Cd) Adsorption amount: contaminated soil; for Cadmium (Cd) Adsorption rate: relative to EDTA control
How it was run: as §1

Compound	Total amount (Cu, Zn, Mn, Ni, Cd) [1]	Arsenic (As) Adsorption amount ([2]; content 0.5% aqueous solution)	Arsenic (As) Adsorption rate ([2]; content 0.5%)	Arsenic (As) Adsorption amount ([2]; content 1.0% aqueous solution)	Arsenic (As) Adsorption rate ([2]; content 1.0%)	Arsenic (As) Adsorption amount ([2]; content 2.0% aqueous solution)	Arsenic (As) Adsorption rate ([2]; content 2.0%)	Formaldehyde GC Area, 30 min [3]	Formaldehyde GC Area, 180 min [3]	Formaldehyde GC Area, Initial [3]	Nickel (Ni) Adsorption amount ([4]; content 0.5% aqueous solution)	Nickel (Ni) Adsorption rate ([4]; content 0.5%)	Nickel (Ni) Adsorption amount ([4]; content 1.0% aqueous solution)	Nickel (Ni) Adsorption rate ([4]; content 1.0%)	Nickel (Ni) Adsorption amount ([4]; content 2.0% aqueous solution)	Nickel (Ni) Adsorption rate ([4]; content 2.0%)	Test result (number of subject) (+) ([5]; content 0.1 wt %)	Test result (number of subject) (++) ([5]; content 0.1 wt %)	Test result (number of subject) (±) ([5]; content 0.1 wt %)	Test result (number of subject) (−) ([5]; content 0.1 wt %)	also measured
O=C(O)c1ccc(N2CCCN(c3ccc(C(=O)O)o3)CCN(c3ccc(C(=O)O)o3)CCCN(c3ccc(C(=O)O)o3)CC2)o1 [Embodiment 12, 5,5′,5″,5′″-(1,4,8,11-tetraazacyclotetradecane-1,4,8,11-tetrayl)tetrakis(furan-2-carboxylic Acid)]	≤5 ppm	41 ppm	164%	43 ppm	172%	46 ppm	184%	0.170 mAU*min	0 mAU*min	0.305 mAU*min	77 ppm	157%	84 ppm	171%	89 ppm	182%	0	0	0	20	Degree of irritation ([5]; content 0.1 wt %): 0; Grade for skin irritation ([5]; content 0.1 wt %): I (Degree of irritation 0-0.1: Grade I (unstimulated)); Test result (number of subject) (+) ([5]; content 0.5 wt %): 0; Test result (number of subject) (++) ([5]; content 0.5 wt %): 0; Test result (number of subject) (±) ([5]; content 0.5 wt %): 0; Test result (number of subject) (−) ([5]; content 0.5 wt %): 20; Degree of irritation ([5]; content 0.5 wt %): 0; Grade for skin irritation ([5]; content 0.5 wt %): I (Degree of irritation 0-0.1: Grade I (unstimulated)); Test result (number of subject) (+) ([5]; content 1.0 wt %): 0; Test result (number of subject) (++) ([5]; content 1.0 wt %): 0; Test result (number of subject) (±) ([5]; content 1.0 wt %): 1; Test result (number of subject) (−) ([5]; content 1.0 wt %): 19; Degree of irritation ([5]; content 1.0 wt %): 0.05; Grade for skin irritation ([5]; content 1.0 wt %): I (Degree of irritation 0-0.1: Grade I (unstimulated)); Cadmium (Cd) Adsorption amount ([6]; content 0.5% aqueous solution): 61 ppm; Cadmium (Cd) Adsorption rate ([6]; content 0.5%): 149%; Cadmium (Cd) Adsorption amount ([6]; content 1.0% aqueous solution): 67 ppm; Cadmium (Cd) Adsorption rate ([6]; content 1.0%): 163%; Cadmium (Cd) Adsorption amount ([6]; content 2.0% aqueous solution): 72 ppm; Cadmium (Cd) Adsorption rate ([6]; content 2.0%): 176%
O=C(O)CN1CCN(CC(=O)O)CCN(CC(=O)O)CCN(CC(=O)O)CC1 [Embodiment 5, 2,2′,2″,2′″-(1,4,7,10-tetraazacyclododecane-1,4,7,10-tetrayl)tetraacetic Acid]	≤5 ppm	41 ppm	164%	46 ppm	184%	53 ppm	212%	0.179 mAU*min	0 mAU*min	0.305 mAU*min	83 ppm	169%	85 ppm	173%	89 ppm	182%	0	0	0	20	Degree of irritation ([5]; content 0.1 wt %): 0; Grade for skin irritation ([5]; content 0.1 wt %): I (Degree of irritation 0-0.1: Grade I (unstimulated)); Test result (number of subject) (+) ([5]; content 0.5 wt %): 0; Test result (number of subject) (++) ([5]; content 0.5 wt %): 0; Test result (number of subject) (±) ([5]; content 0.5 wt %): 0; Test result (number of subject) (−) ([5]; content 0.5 wt %): 20; Degree of irritation ([5]; content 0.5 wt %): 0; Grade for skin irritation ([5]; content 0.5 wt %): I (Degree of irritation 0-0.1: Grade I (unstimulated)); Test result (number of subject) (+) ([5]; content 1.0 wt %): 0; Test result (number of subject) (++) ([5]; content 1.0 wt %): 0; Test result (number of subject) (±) ([5]; content 1.0 wt %): 1; Test result (number of subject) (−) ([5]; content 1.0 wt %): 19; Degree of irritation ([5]; content 1.0 wt %): 0.05; Grade for skin irritation ([5]; content 1.0 wt %): I (Degree of irritation 0-0.1: Grade I (unstimulated)); Cadmium (Cd) Adsorption amount ([6]; content 0.5% aqueous solution): 60 ppm; Cadmium (Cd) Adsorption rate ([6]; content 0.5%): 146%; Cadmium (Cd) Adsorption amount ([6]; content 1.0% aqueous solution): 66 ppm; Cadmium (Cd) Adsorption rate ([6]; content 1.0%): 161%; Cadmium (Cd) Adsorption amount ([6]; content 2.0% aqueous solution): 74 ppm; Cadmium (Cd) Adsorption rate ([6]; content 2.0%): 180%
NCCNCCNCCN [Trientine, Triethylenetetramine, reference compound]	≤5 (red) ppm	49 ppm	196%	52 ppm	208%	59 ppm	236%	0.168 mAU*min	0 mAU*min	0.305 mAU*min	102 ppm	208%	115 ppm	235%	131 ppm	267%	0	0	0	20	Degree of irritation ([5]; content 0.1 wt %): 0; Grade for skin irritation ([5]; content 0.1 wt %): I (Degree of irritation 0-0.1: Grade I (unstimulated)); Test result (number of subject) (+) ([5]; content 0.5 wt %): 0; Test result (number of subject) (++) ([5]; content 0.5 wt %): 0; Test result (number of subject) (±) ([5]; content 0.5 wt %): 1; Test result (number of subject) (−) ([5]; content 0.5 wt %): 19; Degree of irritation ([5]; content 0.5 wt %): 0.05; Grade for skin irritation ([5]; content 0.5 wt %): I (Degree of irritation 0-0.1: Grade I (unstimulated)); Test result (number of subject) (+) ([5]; content 1.0 wt %): 0; Test result (number of subject) (++) ([5]; content 1.0 wt %): 0; Test result (number of subject) (±) ([5]; content 1.0 wt %): 3; Test result (number of subject) (−) ([5]; content 1.0 wt %): 17; Degree of irritation ([5]; content 1.0 wt %): 0.15; Grade for skin irritation ([5]; content 1.0 wt %): II (Degree of irritation 0.11-0.3: Grade II (weakly stimulated)); Cadmium (Cd) Adsorption amount ([6]; content 0.5% aqueous solution): 68 ppm; Cadmium (Cd) Adsorption rate ([6]; content 0.5%): 166%; Cadmium (Cd) Adsorption amount ([6]; content 1.0% aqueous solution): 75 ppm; Cadmium (Cd) Adsorption rate ([6]; content 1.0%): 183%; Cadmium (Cd) Adsorption amount ([6]; content 2.0% aqueous solution): 79 ppm; Cadmium (Cd) Adsorption rate ([6]; content 2.0%): 193%
